The source made the active and inactive calls. The calls are words filed in the database; no cut-off is given here.
Key:
Tetranychus urticae [1] = system: Tetranychus urticae
Heliothis virescens [2] = system: Heliothis virescens
Bemisia tabaci [3] = system: Bemisia tabaci
Trichoplusia ni [4] = assay: Insecticidal activity against Trichoplusia ni (cabbage looper) second-instar larvae infested on 400 ppm compound pre-treated cabbage leaf disk assessed as insect mortality measured 5 days post compound treatment under green house conditions; type: functional; settings: at 400 ppm
Spodoptera exigua [5] = assay: Insecticidal activity against Spodoptera exigua second-instar larvae feeded on 400 ppm compound treated lepidopteran diet assessed as insect mortality measured 5 days post compound treatment under green house conditions; type: functional; settings: at 400 ppm
Aphis gossypii [6] = system: Aphis gossypii
Tetranychus urticae [7] = assay: Insecticidal activity against female Tetranychus urticae (two-spotted spider mite) infested cotton leaf disks followed by 2.5 ppm compound spraying after oviposit assessed as insect mortality measured after 6 days post compound application under green house conditions; type: functional; settings: foliar, 144 h
Trichoplusia ni [8] = system: Trichoplusia ni
Bemisia tabaci [9] = assay: Insecticidal activity against Bemisia tabaci (sweet potato whitefly) second-instar larvae infested five weeks old cotton plants followed by compound 250 ppm compound spraying after insect oviposit assessed as insect mortality measured 13 days post compound treatment under green house conditions; type: functional
Spodoptera exigua [10] = system: Spodoptera exigua
Heliothis virescens [11] = assay: Insecticidal activity against Heliothis virescens (tobacco budworm) second-instar larvae infested on 400 ppm compound pre-treated cotton cotyledon disk assessed as insect mortality measured 5 days post compound treatment under green house conditions; type: functional
Aphis gossypii [12] = assay: Insecticidal activity against Aphis gossypii (cotton aphid) infested one week old Crookneck squash plants assessed as insect mortality at 50 ppm measured after 3 days post compound application under green house conditions; type: functional; settings: 72 h

Row | SMILES | mortality (Tetranychus urticae [1]) | mortality (Heliothis virescens [2]) | mortality (Bemisia tabaci [3]) | mortality (Trichoplusia ni [4]) | mortality (Spodoptera exigua [5]) | mortality (Aphis gossypii [6]) | mortality at 2.5 ppm (Tetranychus urticae [7]) | mortality (Trichoplusia ni [8]) | mortality (Bemisia tabaci [9]) | mortality (Spodoptera exigua [10]) | mortality (Heliothis virescens [11]) | mortality at 50 ppm (Aphis gossypii [12])
1 | COc1ccc(-c2ccc(-c3nc(-c4c(F)cccc4F)nn3C)s2)cc1 | inactive | inactive | inactive | <50% | 90% | inactive |  |  |  |  |  | 
2 | Cc1c(-c2nc(-c3c(F)cccc3Cl)nn2C)sc(Cl)c1-c1ccc(OC(F)(F)F)cc1 |  | inactive |  |  | 90% | inactive | 90% | inactive | <50% |  |  | 
3 | Cn1nc(-c2c(F)cccc2F)nc1-c1sc(-c2ccc(C(F)(F)F)cc2)cc1Cl |  |  | inactive | <50% |  | inactive | 90% |  |  | inactive | 90% | 
4 | Cc1cc(-c2cc(Br)cc(Br)c2)sc1-c1nc(-c2c(F)cccc2Cl)nn1C | inactive |  | inactive |  | 60% | inactive |  | inactive |  |  | <50% | 
5 | Cc1cc(C2=CCC(OC(F)(F)C(F)Br)CC2)sc1-c1nc(-c2c(F)cccc2Cl)nn1C (stereo not given) | inactive | inactive |  |  | <50% |  |  | inactive |  |  |  | < 50%
6 | Cc1c(-c2nc(-c3c(F)cccc3Cl)nn2C)sc(Br)c1-c1ccc(OC(F)(F)F)cc1 |  | inactive | inactive |  | 90% | inactive | 50% | inactive |  |  |  | 
7 | Cn1nc(-c2c(F)cccc2Cl)nc1-c1cc(-c2ccc(Cl)cc2)c(Cl)s1 | inactive | inactive |  |  | 50% | inactive |  |  |  |  |  | 
8 | Cn1nc(-c2c(F)cccc2F)nc1-c1cc(-c2ccccc2)c(C(F)(F)F)s1 | inactive | inactive |  |  | 50% | inactive |  | inactive |  |  |  | 
9 | Cc1ccc(-c2cc(Cl)c(-c3nc(-c4c(F)cccc4Cl)nn3C)s2)cc1 |  |  | inactive |  | <50% | inactive | 90% | inactive |  |  | 60% | 
10 | Cn1nc(-c2c(F)cccc2Cl)nc1-c1sc(-c2ccc(C(F)(F)F)cc2)c(Br)c1Cl |  |  | inactive |  | 90% |  | 90% | inactive |  |  | 90% | < 50%
11 | Cn1nc(-c2c(F)cccc2Cl)nc1-c1ccc(-c2cccc(OC(F)(F)F)c2)s1 | inactive | inactive | inactive | 80% | <50% | inactive |  |  |  |  |  | 
12 | Cn1nc(-c2c(F)cccc2Cl)nc1-c1cc(Br)c(-c2cccc(OC(F)(F)F)c2)s1 | inactive | inactive |  |  | <50% | inactive |  | inactive | <50% |  |  | 
13 | Cc1cc(-c2cccc(OC(F)(F)F)c2)sc1-c1nc(-c2c(F)cccc2Cl)nn1C | inactive |  |  | 90% | 80% | inactive |  |  | <50% |  | 90% | 
14 | CCOc1ccc(-c2ccc(-c3nc(-c4c(F)cccc4Cl)nn3C)s2)cc1 | inactive | inactive |  | 90% | 80% | inactive |  |  | <50% |  |  | 
15 | Cn1nc(-c2c(F)cccc2F)nc1-c1ccc(-c2ccc(OC(F)(F)F)cc2)s1 | inactive |  | inactive | 90% |  | inactive |  |  |  | inactive | 90% | 
16 | Cc1ccc(-c2sc(-c3nc(-c4c(F)cccc4Cl)nn3C)cc2Br)cc1 | inactive | inactive |  |  | <50% | inactive |  | inactive | <50% |  |  | 
17 | Cc1cc(-c2ccncc2)sc1-c1nc(-c2c(F)cccc2Cl)nn1C | inactive |  | inactive | 90% | 70% | inactive |  |  |  |  | <50% | 
18 | Cn1nc(-c2c(F)cccc2Cl)nc1-c1cc(Br)c(-c2cccc(C(F)(F)F)c2)s1 | inactive | inactive | inactive |  | <50% | inactive |  | inactive |  |  |  | 

Row | SMILES | mortality (Tetranychus urticae [1]) | mortality (Heliothis virescens [2]) | mortality (Bemisia tabaci [3]) | mortality (Trichoplusia ni [4]) | mortality (Spodoptera exigua [5]) | mortality (Aphis gossypii [6]) | mortality at 2.5 ppm (Tetranychus urticae [7]) | mortality (Trichoplusia ni [8]) | mortality (Bemisia tabaci [9]) | mortality (Spodoptera exigua [10]) | mortality (Heliothis virescens [11]) | mortality at 50 ppm (Aphis gossypii [12])
19 | Cc1cc(-c2ccc3c(c2)OC(F)(F)O3)sc1-c1nc(-c2c(F)cccc2Cl)nn1C | inactive | inactive |  |  | 80% | inactive |  | inactive | <50% |  |  | 
20 | Cc1cc(C2(O)CCC(=O)CC2)sc1-c1nc(-c2c(F)cccc2Cl)nn1C | inactive |  | inactive | <50% | <50% | inactive |  |  |  |  | <50% | 
21 | Cn1nc(-c2c(F)cccc2Cl)nc1-c1sc(-c2ccc(OC(F)(F)F)cc2)c(Cl)c1Cl | inactive |  |  | 90% | 70% | inactive |  |  | 70% |  | 60% | 
22 | COc1ccc(-c2csc(-c3nc(-c4c(F)cccc4F)nn3C)c2)cc1 | inactive | inactive |  | 80% | 50% | inactive |  |  | 60% |  |  | 
23 | Cn1nc(-c2c(F)cccc2Cl)nc1-c1cc(Br)c(-c2ccc(OC(F)(F)F)cc2)s1 |  |  |  | 90% |  | inactive | 90% |  | <50% | inactive | 90% | 
24 | Cc1cc(-c2ccc(Cl)c(Cl)c2)sc1-c1nc(-c2c(F)cccc2Cl)nn1C | inactive | inactive | inactive | 60% | 70% | inactive |  |  |  |  |  | 
25 | Cn1nc(-c2c(F)cccc2Cl)nc1-c1ccc(-c2ccc(F)cc2)s1 | inactive | inactive |  | 80% | <50% | inactive |  |  | <50% |  |  | 
26 | Cc1ccc(-c2cc(Cl)c(-c3nc(-c4c(F)cccc4F)nn3C)s2)cc1 |  |  | inactive |  |  | inactive | 90% | inactive |  | inactive | 80% | 
27 | Cc1cc(C2CCC(OC(=O)C(F)(F)Br)CC2)sc1-c1nc(-c2c(F)cccc2Cl)nn1C (stereo not given) | inactive | inactive |  |  | <50% | inactive |  | inactive |  |  |  | 
28 | Cc1c(-c2ccc(O)cc2)csc1-c1nc(-c2c(F)cccc2Cl)nn1C | inactive |  | inactive |  | <50% | inactive |  | inactive |  |  | <50% | 
29 | Cc1ccc(-c2sc(-c3nc(-c4c(F)cccc4Cl)nn3C)c(Cl)c2Cl)cc1 |  |  |  |  | 70% | inactive | 90% | inactive | 70% |  | 50% | 
30 | CCOc1ccc(-c2cc(C)c(-c3nc(-c4c(F)cccc4Cl)nn3C)s2)cc1 |  |  |  |  | 80% | inactive | 90% | inactive | <50% |  | 60% | 
31 | Cc1c(-c2ccc(C(F)(F)F)cc2)csc1-c1nc(-c2c(F)cccc2Cl)nn1C |  | inactive |  | 90% | 60% |  | 60% |  | <50% |  |  | 60%
32 | Cn1nc(-c2c(F)cccc2Cl)nc1-c1sc(-c2ccc(Br)cc2)c(Cl)c1Cl |  |  |  |  | 70% | inactive | 90% | inactive | 50% |  | 90% | 
33 | Cc1sc(-c2nc(-c3c(F)cccc3Cl)nn2C)c(C)c1-c1ccc(C(C)C)cc1 |  |  | inactive |  | 80% |  | 90% | inactive |  |  | 80% | < 50%
34 | Cc1c(-c2nc(-c3c(F)cccc3Cl)nn2C)sc(-c2ccc(OC(F)(F)F)cc2)c1Br |  | inactive | inactive | 90% | 90% | inactive | 90% |  |  |  |  | 
35 | COCCOc1cccc(-c2cc(C)c(-c3nc(-c4c(F)cccc4Cl)nn3C)s2)c1 |  | inactive | inactive | 70% | 80% |  | < 50% |  |  |  |  | < 50%

Source: ChEMBL document CHEMBL3044558, “Structure-activity relationship development of dihaloaryl triazole compounds as insecticides and acaricides. 1. Phenyl thiophen-2-yl triazoles” (2007)
